Key:
[1] = molecular target: Ephrin type-B receptor 4 (Homo sapiens, UniProt P54760); format: cell-based, HEK293T
[2] = molecular target: Ephrin type-B receptor 6 (Homo sapiens, UniProt O15197); test: Inhibition of Nano Luc-fused full length C-terminal EPHB6 (unknown origin) expressed in HEK293T cells using NanoGlo as substrate incubated for 2 hrs in presence of tracer by NanoBRET assay; format: cell-based
[3] = molecular target: Acidic leucine-rich nuclear phosphoprotein 32 family member B (Homo sapiens) (UniProt Q92688); further: assay method not described here
[4] = molecular target: Annexin A6 (Homo sapiens) (UniProt P08133); further: assay method not described here
Sequence of Annexin A6 (Homo sapiens) (P08133 whole entry): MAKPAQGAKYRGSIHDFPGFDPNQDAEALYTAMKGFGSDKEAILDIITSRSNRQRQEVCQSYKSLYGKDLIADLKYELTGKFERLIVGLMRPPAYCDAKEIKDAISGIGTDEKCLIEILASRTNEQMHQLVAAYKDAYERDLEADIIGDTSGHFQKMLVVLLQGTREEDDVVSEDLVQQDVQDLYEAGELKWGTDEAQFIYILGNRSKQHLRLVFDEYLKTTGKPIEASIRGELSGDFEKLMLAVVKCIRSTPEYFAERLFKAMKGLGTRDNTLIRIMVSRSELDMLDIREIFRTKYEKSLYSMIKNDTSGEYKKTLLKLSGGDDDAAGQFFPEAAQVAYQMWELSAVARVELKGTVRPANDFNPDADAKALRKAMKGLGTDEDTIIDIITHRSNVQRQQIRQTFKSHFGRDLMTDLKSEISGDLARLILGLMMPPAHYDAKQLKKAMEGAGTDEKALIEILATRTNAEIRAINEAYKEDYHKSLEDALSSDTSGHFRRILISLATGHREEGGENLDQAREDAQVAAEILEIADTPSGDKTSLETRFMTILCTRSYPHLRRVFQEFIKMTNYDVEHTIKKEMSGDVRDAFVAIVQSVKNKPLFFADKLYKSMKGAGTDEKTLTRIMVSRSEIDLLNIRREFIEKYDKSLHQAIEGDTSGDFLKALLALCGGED

[5] = molecular target: Aurora kinase A (Homo sapiens) (UniProt O14965); further: assay method not described here
[6] = molecular target: Bromodomain adjacent to zinc finger domain protein 1A (Homo sapiens) (UniProt Q9NRL2); further: assay method not described here
[7] = molecular target: Hsp90 co-chaperone Cdc37 (Homo sapiens) (UniProt Q16543); further: assay method not described here
[8] = molecular target: Serine/threonine-protein kinase MRCK gamma (Homo sapiens) (UniProt Q6DT37); further: assay method not described here
[9] = molecular target: Cathepsin D (Homo sapiens) (UniProt P07339); further: assay method not described here
[10] = molecular target: Cullin-3 (Homo sapiens) (UniProt Q13618); further: assay method not described here
[11] = molecular target: ATP-dependent RNA helicase DDX24 (Homo sapiens) (UniProt Q9GZR7); further: assay method not described here
Sequence of ATP-dependent RNA helicase DDX24 (Homo sapiens) (Q9GZR7 whole entry): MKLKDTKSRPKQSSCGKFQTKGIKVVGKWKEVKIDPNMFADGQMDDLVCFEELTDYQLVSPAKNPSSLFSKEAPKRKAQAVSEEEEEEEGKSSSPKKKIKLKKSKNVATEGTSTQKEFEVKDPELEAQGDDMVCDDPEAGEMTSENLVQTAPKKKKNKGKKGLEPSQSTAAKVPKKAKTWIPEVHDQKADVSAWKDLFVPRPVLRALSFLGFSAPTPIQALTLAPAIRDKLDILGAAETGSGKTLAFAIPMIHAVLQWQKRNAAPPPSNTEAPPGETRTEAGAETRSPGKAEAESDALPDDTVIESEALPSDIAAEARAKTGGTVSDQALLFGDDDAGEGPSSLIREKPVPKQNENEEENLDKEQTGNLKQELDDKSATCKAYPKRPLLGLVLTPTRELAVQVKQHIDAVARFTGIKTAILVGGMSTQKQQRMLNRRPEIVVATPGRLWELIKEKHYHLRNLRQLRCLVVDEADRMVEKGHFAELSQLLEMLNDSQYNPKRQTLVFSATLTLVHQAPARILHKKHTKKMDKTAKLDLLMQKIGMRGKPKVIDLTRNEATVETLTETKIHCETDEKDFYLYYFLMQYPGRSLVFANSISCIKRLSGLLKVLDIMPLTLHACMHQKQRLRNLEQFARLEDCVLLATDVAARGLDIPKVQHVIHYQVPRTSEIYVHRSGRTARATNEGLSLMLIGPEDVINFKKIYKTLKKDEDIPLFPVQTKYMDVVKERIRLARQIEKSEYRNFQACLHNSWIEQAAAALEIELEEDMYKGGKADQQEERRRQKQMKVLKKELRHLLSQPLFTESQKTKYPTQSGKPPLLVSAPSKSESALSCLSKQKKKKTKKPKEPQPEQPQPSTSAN

[12] = molecular target: Desmoplakin (Homo sapiens) (UniProt P15924); further: assay method not described here
[13] = molecular target: Enoyl-CoA delta isomerase 1, mitochondrial (Homo sapiens) (UniProt P42126); further: assay method not described here
[14] = molecular target: Translation initiation factor eIF2B subunit gamma (Homo sapiens) (UniProt Q9NR50); further: assay method not described here
[15] = molecular target: General transcription and DNA repair factor IIH helicase subunit XPD (Homo sapiens) (UniProt P18074); further: assay method not described here
[16] = molecular target: Phenylalanine--tRNA ligase alpha subunit (Homo sapiens) (UniProt Q9Y285); further: assay method not described here
[17] = molecular target: Peptidyl-prolyl cis-trans isomerase FKBP1A (Homo sapiens) (UniProt P62942); further: assay method not described here
[18] = molecular target: Neutral alpha-glucosidase AB (Homo sapiens) (UniProt Q14697); further: assay method not described here
Sequence of Neutral alpha-glucosidase AB (Homo sapiens) (Q14697 whole entry): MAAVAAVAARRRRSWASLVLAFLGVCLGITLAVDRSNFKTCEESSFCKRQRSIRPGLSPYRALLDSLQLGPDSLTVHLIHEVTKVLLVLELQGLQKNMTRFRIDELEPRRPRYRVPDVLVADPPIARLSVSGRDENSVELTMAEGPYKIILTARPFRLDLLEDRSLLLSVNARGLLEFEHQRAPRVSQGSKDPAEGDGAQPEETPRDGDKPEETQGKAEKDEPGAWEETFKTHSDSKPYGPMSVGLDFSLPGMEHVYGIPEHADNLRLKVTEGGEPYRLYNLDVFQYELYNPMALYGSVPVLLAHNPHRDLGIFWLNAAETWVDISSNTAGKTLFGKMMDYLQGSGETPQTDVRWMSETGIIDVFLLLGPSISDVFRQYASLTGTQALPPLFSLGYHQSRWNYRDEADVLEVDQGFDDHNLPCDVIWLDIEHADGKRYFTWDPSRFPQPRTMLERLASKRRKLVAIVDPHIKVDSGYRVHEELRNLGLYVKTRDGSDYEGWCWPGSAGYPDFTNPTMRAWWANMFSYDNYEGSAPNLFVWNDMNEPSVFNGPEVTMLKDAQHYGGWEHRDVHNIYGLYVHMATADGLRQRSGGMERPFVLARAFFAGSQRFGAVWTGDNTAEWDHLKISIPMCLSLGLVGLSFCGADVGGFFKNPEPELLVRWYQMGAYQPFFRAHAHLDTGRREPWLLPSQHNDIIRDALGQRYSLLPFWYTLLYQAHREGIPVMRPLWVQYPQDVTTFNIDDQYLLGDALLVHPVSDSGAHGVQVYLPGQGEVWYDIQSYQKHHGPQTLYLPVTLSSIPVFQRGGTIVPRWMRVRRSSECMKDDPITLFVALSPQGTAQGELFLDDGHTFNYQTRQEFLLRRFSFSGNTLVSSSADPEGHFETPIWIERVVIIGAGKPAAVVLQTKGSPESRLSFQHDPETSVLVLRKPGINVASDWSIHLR

[19] = molecular target: Glyceraldehyde-3-phosphate dehydrogenase (Homo sapiens) (UniProt P04406); further: assay method not described here
[20] = molecular target: 60 kDa heat shock protein, mitochondrial (Homo sapiens) (UniProt P10809); further: assay method not described here
[21] = molecular target: Insulin-like growth factor 2 mRNA-binding protein 1 (Homo sapiens) (UniProt Q9NZI8); further: assay method not described here
[22] = molecular target: MICOS complex subunit MIC60 (Homo sapiens) (UniProt Q16891); further: assay method not described here
[23] = molecular target: Interleukin-1 receptor-associated kinase 4 (Homo sapiens) (UniProt Q9NWZ3); further: assay method not described here
[24] = molecular target: Mitogen-activated protein kinase kinase kinase kinase 1 (Homo sapiens) (UniProt Q92918); further: assay method not described here
[25] = molecular target: Mitochondrial antiviral-signaling protein (Homo sapiens) (UniProt Q7Z434); further: assay method not described here
[26] = molecular target: Midasin (Homo sapiens) (UniProt Q9NU22); further: assay method not described here
[27] = molecular target: Small ribosomal subunit protein uS7m (Homo sapiens) (UniProt Q9Y2R9); further: assay method not described here
[28] = molecular target: Asparagine--tRNA ligase, cytoplasmic (Homo sapiens) (UniProt O43776); further: assay method not described here
[29] = molecular target: NBAS subunit of NRZ tethering complex (Homo sapiens) (UniProt A2RRP1); further: assay method not described here
[30] = molecular target: Nuclear cap-binding protein subunit 1 (Homo sapiens) (UniProt Q09161); further: assay method not described here
Sequence of Nuclear cap-binding protein subunit 1 (Homo sapiens) (Q09161 whole entry): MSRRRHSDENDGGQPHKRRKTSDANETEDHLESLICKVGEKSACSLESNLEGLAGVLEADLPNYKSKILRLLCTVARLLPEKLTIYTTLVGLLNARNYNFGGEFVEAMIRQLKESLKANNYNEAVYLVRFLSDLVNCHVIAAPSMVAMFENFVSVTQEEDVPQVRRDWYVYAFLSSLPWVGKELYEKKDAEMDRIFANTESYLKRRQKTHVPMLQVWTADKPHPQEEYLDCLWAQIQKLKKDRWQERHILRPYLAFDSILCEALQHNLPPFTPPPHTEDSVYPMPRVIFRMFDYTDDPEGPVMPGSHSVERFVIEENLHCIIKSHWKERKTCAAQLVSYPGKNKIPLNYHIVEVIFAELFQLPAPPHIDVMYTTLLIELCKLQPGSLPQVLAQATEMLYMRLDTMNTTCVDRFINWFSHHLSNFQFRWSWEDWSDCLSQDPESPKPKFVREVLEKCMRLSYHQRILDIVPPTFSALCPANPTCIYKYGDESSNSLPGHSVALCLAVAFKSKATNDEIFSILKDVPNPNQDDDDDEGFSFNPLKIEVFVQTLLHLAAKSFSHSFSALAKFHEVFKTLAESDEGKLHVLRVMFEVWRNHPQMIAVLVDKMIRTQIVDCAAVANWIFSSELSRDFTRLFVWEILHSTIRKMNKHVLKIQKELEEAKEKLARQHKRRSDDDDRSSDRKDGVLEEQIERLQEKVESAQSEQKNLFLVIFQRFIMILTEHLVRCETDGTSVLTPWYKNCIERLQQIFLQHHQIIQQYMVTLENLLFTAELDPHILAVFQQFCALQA

[31] = molecular target: NADH dehydrogenase [ubiquinone] iron-sulfur protein 7, mitochondrial (Homo sapiens) (UniProt O75251); further: assay method not described here
[32] = molecular target: Nucleolar complex protein 2 homolog (Homo sapiens) (UniProt Q9Y3T9); further: assay method not described here
[33] = molecular target: Nucleophosmin (Homo sapiens) (UniProt P06748); further: assay method not described here
[34] = molecular target: Ribosyldihydronicotinamide dehydrogenase [quinone] (Homo sapiens) (UniProt P16083); further: assay method not described here
[35] = molecular target: Phosphatidylinositol 5-phosphate 4-kinase type-2 alpha (Homo sapiens) (UniProt P48426); further: assay method not described here
Sequence of Phosphatidylinositol 5-phosphate 4-kinase type-2 alpha (Homo sapiens) (P48426 whole entry): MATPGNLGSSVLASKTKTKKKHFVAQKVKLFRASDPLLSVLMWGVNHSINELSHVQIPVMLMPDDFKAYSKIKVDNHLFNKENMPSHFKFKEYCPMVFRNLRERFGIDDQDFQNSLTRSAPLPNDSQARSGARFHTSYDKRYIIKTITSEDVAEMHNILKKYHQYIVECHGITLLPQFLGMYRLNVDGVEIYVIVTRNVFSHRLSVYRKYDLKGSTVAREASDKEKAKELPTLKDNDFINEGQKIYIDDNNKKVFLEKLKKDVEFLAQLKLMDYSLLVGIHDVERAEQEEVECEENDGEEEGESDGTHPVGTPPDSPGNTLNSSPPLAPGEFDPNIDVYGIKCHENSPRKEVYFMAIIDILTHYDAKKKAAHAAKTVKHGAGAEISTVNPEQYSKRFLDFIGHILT

[36] = molecular target: Peroxiredoxin-4 (Homo sapiens) (UniProt Q13162); further: assay method not described here
Sequence of Peroxiredoxin-4 (Homo sapiens) (Q13162 whole entry): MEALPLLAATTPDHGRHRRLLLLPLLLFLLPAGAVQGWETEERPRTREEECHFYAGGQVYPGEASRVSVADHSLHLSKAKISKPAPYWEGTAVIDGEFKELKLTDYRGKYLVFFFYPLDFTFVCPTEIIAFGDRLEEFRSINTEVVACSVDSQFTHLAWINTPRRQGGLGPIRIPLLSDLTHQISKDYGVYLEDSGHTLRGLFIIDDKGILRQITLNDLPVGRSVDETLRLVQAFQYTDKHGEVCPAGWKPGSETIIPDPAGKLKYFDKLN

[37] = molecular target: Focal adhesion kinase 1 (Homo sapiens) (UniProt Q05397); further: assay method not described here
[38] = molecular target: Protein RER1 (Homo sapiens) (UniProt O15258); further: assay method not described here
[39] = molecular target: Large ribosomal subunit protein uL23 (Homo sapiens) (UniProt P62750); further: assay method not described here
[40] = molecular target: Syndecan-1 (Homo sapiens) (UniProt P18827); further: assay method not described here
[41] = molecular target: Serine/threonine-protein kinase SIK3 (Homo sapiens) (UniProt Q9Y2K2); further: assay method not described here
[42] = molecular target: Signal recognition particle subunit SRP68 (Homo sapiens) (UniProt Q9UHB9); further: assay method not described here
[43] = molecular target: Transcription elongation regulator 1 (Homo sapiens) (UniProt O14776); further: assay method not described here
Sequence of Transcription elongation regulator 1 (Homo sapiens) (O14776 whole entry): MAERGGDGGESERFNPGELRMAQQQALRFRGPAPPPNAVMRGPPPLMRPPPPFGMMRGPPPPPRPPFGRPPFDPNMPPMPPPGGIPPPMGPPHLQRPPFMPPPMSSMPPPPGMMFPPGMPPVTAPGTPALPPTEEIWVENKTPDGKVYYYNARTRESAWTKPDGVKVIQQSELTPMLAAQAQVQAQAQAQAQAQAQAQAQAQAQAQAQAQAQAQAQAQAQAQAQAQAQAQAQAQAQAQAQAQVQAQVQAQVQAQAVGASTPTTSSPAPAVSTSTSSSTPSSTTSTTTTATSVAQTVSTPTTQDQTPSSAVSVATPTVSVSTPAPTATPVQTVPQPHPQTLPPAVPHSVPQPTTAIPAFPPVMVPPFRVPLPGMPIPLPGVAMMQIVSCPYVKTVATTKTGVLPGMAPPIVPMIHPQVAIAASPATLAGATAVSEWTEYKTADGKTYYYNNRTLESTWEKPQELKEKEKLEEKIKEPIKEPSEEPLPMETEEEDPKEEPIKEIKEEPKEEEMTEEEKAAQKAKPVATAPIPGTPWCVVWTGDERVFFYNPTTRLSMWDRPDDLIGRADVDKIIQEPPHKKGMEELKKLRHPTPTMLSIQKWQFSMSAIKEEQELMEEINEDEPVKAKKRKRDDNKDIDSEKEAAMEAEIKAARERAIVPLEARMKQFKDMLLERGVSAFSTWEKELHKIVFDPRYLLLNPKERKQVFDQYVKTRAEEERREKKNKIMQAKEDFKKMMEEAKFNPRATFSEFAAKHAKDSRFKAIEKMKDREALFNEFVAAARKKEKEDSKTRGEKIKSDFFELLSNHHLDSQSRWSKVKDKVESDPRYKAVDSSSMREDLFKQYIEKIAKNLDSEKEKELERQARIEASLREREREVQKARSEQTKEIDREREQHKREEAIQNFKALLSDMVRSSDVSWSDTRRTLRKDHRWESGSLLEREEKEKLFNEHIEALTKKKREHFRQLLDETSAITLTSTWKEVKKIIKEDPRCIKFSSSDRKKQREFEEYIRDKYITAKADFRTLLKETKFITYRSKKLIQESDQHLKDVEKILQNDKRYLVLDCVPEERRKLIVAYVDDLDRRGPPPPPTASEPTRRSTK

[44] = molecular target: DNA topoisomerase 1 (Homo sapiens) (UniProt P11387); further: assay method not described here
[45] = molecular target: Transitional endoplasmic reticulum ATPase (Homo sapiens) (UniProt P55072); further: assay method not described here

Cc1ccc(C(=O)Nc2cccc(C(F)(F)F)c2)cc1Nc1nc(-c2cccnc2)nc2c1cnn2C
IC50 [1]: 0.003 µM
IC50 [2]: 4.48 µM
ED50 [3]: 5.15 µM
ED50 [4]: 9 µM
ED50 [5]: 6.29 µM
ED50 [6]: 0.532 µM
ED50 [7]: 3.55 µM
ED50 [8]: 17.5 µM
ED50 [9]: 59.3 µM
ED50 [10]: 0.0191 µM
ED50 [11]: 2.99 µM
ED50 [12]: 22.3 µM
ED50 [13]: 5.02 µM
ED50 [14]: 10.3 µM
ED50 [15]: 0.199 µM
ED50 [16]: 0.0419 µM
ED50 [17]: 94 µM
ED50 [18]: 4.09 µM
ED50 [19]: 8.39 µM
ED50 [20]: 0.0041 µM
ED50 [21]: 0.115 µM
ED50 [22]: 5.75 µM
ED50 [23]: 0.466 µM
ED50 [24]: 5.28 µM
ED50 [25]: 5.26 µM
ED50 [26]: 55500 µM
ED50 [27]: 7.18 µM
ED50 [28]: 0.0284 µM
ED50 [29]: 0.0417 µM
ED50 [30]: 0.000799 µM
ED50 [31]: 0.00309 µM
ED50 [32]: 0.637 µM
ED50 [33]: 0.00826 µM
ED50 [34]: 0.0365 µM
ED50 [35]: 0.0993 µM
ED50 [36]: 2.73 µM
ED50 [37]: 10.4 µM
ED50 [38]: 78.2 µM
ED50 [39]: 0.105 µM
ED50 [40]: 1.77 µM
ED50 [41]: 112 µM
ED50 [42]: 4.09 µM
ED50 [43]: 732 µM
ED50 [44]: 0.0425 µM
ED50 [45]: 5.07 µM

Cc1ccc(C(=O)Nc2cccc(C(F)(F)F)c2)cc1Nc1nc(-c2cccnc2)nc2nn(C)cc12
IC50 [1]: 1.66 µM
IC50 [2]: > 50 µM
ED50 [3]: 10.1 µM
ED50 [4]: 0.0326 µM
ED50 [5]: 9.32 µM
ED50 [6]: 0.0186 µM
ED50 [7]: 0.00871 µM
ED50 [8]: 0.0947 µM
ED50 [9]: 760 µM
ED50 [10]: 1.09 µM
ED50 [11]: 0.1 µM
ED50 [12]: 0.288 µM
ED50 [13]: 64 µM
ED50 [14]: 0.332 µM
ED50 [15]: 21.8 µM
ED50 [16]: 0.0801 µM
ED50 [17]: 0.00568 µM
ED50 [18]: 0.0402 µM
ED50 [19]: 0.0602 µM
ED50 [20]: 0.148 µM
ED50 [21]: 0.0177 µM
ED50 [22]: 0.00743 µM
ED50 [23]: 647 µM
ED50 [24]: 0.334 µM
ED50 [25]: 0.394 µM
ED50 [26]: 0.048 µM
ED50 [27]: 154 µM
ED50 [28]: 5.57 µM
ED50 [29]: 22.4 µM
ED50 [30]: 1.78 µM
ED50 [31]: 1.81 µM
ED50 [32]: 627 µM
ED50 [33]: 104 µM
ED50 [34]: 4.12 µM
ED50 [35]: 83.4 µM
ED50 [36]: 0.0305 µM
ED50 [37]: 0.0476 µM
ED50 [38]: 3.97 µM
ED50 [39]: 0.0137 µM
ED50 [40]: 1.07 µM
ED50 [41]: 10.4 µM
ED50 [42]: 0.0188 µM
ED50 [43]: 0.0876 µM
ED50 [44]: 0.00653 µM
ED50 [45]: 0.0706 µM

Reference: ChEMBL document CHEMBL5649169 (ChemMedChem, 2018)
